From US12517131B2, “Methods for labeling eukaryotic cells from a multicellular organism as well as for treating and/or diagnosing a cancer using modified monosaccharide compounds” (DIAMIDEX, priority 2019, dated 2026)

Key:
Experiment in all cases: Comparison of labeling of Ara-N3 and KDO-N3
Type in all cases: cell-based, human
Conditions in all cases: same conditions as in example 2
HeLa = system: HeLa
Raw = system: Raw
Macrophages = system: Macrophages

Measured: labelling of cells (fluorescence intensity)

[N-]=[N+]=NC[C@@H](O)[C@@H](O)[C@H](O)[C@H](O)CC(=O)C(=O)O [KDO-N3, 8-azido-3,8-dideoxy-D-manno-octulosonic acid]
not labelled: all assays above
